Measurements taken from article PMC8296985, “A Covalent Calmodulin Inhibitor as a Tool to Study Cellular Mechanisms of K-Ras-Driven Stemness” (Frontiers in Cell and Developmental Biology, 2021).

System: MDA-MB-231
Test: 3D spheroid (tumorosphere) formation assay, low attachment, serum-free, alamarBlue
Assay type: cell-based
Conditions: Homo sapiens, 72 h; MDA-MB-231 (K-RasG13D) 3D tumorosphere, 3 days treatment; read-out: IC50
Procedure: (§1) 3D spheroid formation assays were performed in 96-well low-attachment, suspension culture plates (cat. no. 655185, Cellstar, Greiner Bio-One) under serum-free condition. About 1,000 (MDA-MB-231, NCI-H358, and MIA PaCa-2) or 2,500 (Hs 578T) cells per well were seeded in 50 μl of either an RPMI medium (cat. no. 52400-025, Gibco, Thermo Fisher Scientific) (MDA-MB-231, A375, and NCI-H358) or DMEM (cat. no. 41965-039, Gibco, Thermo Fisher Scientific) (Hs 578T and MIA PaCa-2), containing 0.5% MethoCult (cat. no. SF H4636, Stemcell technologies), 1x B27 (cat. no. 17504044, Gibco, Thermo Fisher Scientific), 25 ng/ml EGF (cat. no. E9644, Sigma-Aldrich), and 25 ng/ml FGF (cat. no. RP-8628, Thermo Fisher Scientific). Cells were cultured for 3 days and then treated with compounds or vehicle control (DMSO 0.1% v/v in growth medium) for another 3 days. The cells were supplemented with a fresh growth medium on the third day together with the drug treatment. For knockdown experiments, cells were seeded in 12-well plates and treated with either 50 nM scrambled siRNA (cat. no. 1022076, QIAGEN) or indicated concentrations of siRNAs. Next day, cells were collected by trypsinization and re-plated into 96-well plates for 3D spheroid suspension culture.
(§2) Spheroid formation efficiency was analyzed by an alamarBlue assay reagent (cat. no. DAL1100, Thermo Fisher Scientific). A 10% final volume of the alamarBlue reagent was added to each well of the plate and incubated for 4 h at 37°C. Then the fluorescence intensity was measured using the FLUOstar OPTIMA plate reader (BMG Labtech, Germany) with an excitation wavelength of 560 ± 5 nm and an emission wavelength of 590 ± 5 nm.
(§3) To quantitatively profile the drug sensitivity with a more robust parameter than the IC50 or EC50 values, the drug sensitivity score (DSS) analysis was employed. DSS values are essentially normalized area under the curve (AUC) measures of dose-response inhibition data ([Yadav et al., 2014]). Drug response data files (in Excel) ready for online analysis were prepared according to the example file obtained from the DSS pipeline website, called Breeze^1 ([Potdar et al., 2020]). Either raw fluorescence intensity measurements or normalized % inhibition data (for BRET assay analysis) were uploaded.
(§4) DSS3 was employed to emphasize drugs that obtain their response area over a relatively wide dose window, as compared to drugs that show increased response only at the higher end of the concentration range. After logistic fitting of the dose-response inhibition data, the area under the curve (AUC) was determined as the exact solution. A 10% minimal activity threshold (t) was set. The maximum (Cmax) and minimum (Cmin) concentrations were used for screening of the inhibitors, with Cmax = x2 and x1 concentration with minimal activity t.

| SMILES | IC50 |
| --- | --- |
| CC(C)c1ccc2cc(C(F)(F)F)c(=O)c3c(N4CCOCC4)c(C=O)c(c1)c23 [Compound 2] | 22.8 µM |
| CC(C)c1ccc2cc(C(F)(F)F)c(=O)c3c(N4CCCC4)c(C=O)c(c1)c23 [Compound 4] | > 40 µM |
| CC(C)c1ccc2cc(C(F)(F)F)c(=O)c3c(N4CCC4)c(C=O)c(c1)c23 [Compound 5] | 34.5 µM |
| Cc1c(N2CCOCC2)c2c(=O)c(C(F)(F)F)cc3ccc(C(C)C)cc1c32 [Compound 9] | 19.6 µM |
| Cc1c(N2CCN(C)CC2)c2c(=O)c(C(F)(F)F)cc3ccc(C(C)C)cc1c32 [Compound 10] | > 40 µM |

Continued, values first:

| IC50 | SMILES |
| --- | --- |
| > 40 µM | CC(C)c1ccc2cc(C(F)(F)F)c(=O)c3c(NCCO)c(C=O)c(c1)c23 [Compound 6] |
| > 40 µM | CC(C)c1ccc2cc(C(F)(F)F)c(=O)c3c(N)c(C=O)c(c1)c23 [Compound 7] |

Same assay, conditions: Homo sapiens; MDA-MB-231 3D tumorosphere; log scale; read-out: logIC50 ± SD (converted)

| IC50 | SMILES |
| --- | --- |
| 22.9 µM | CC(C)c1ccc2cc(C(F)(F)F)c(=O)c3c(N4CCOCC4)c(C=O)c(c1)c23 [Compound 2] |
| 34.7 µM | CC(C)c1ccc2cc(C(F)(F)F)c(=O)c3c(N4CCC4)c(C=O)c(c1)c23 [Compound 5] |
| 19.5 µM | Cc1c(N2CCOCC2)c2c(=O)c(C(F)(F)F)cc3ccc(C(C)C)cc1c32 [Compound 9] |

Same assay, conditions: MDA-MB-231 3D tumorosphere; log scale

| SMILES | logIC50 ± SD |
| --- | --- |
| CC(C)c1ccc2cc(C(F)(F)F)c(=O)c3c(N4CCCC4)c(C=O)c(c1)c23 [Compound 4] | Inconclusive |
| CC(C)c1ccc2cc(C(F)(F)F)c(=O)c3c(NCCO)c(C=O)c(c1)c23 [Compound 6] | Inconclusive |
| CC(C)c1ccc2cc(C(F)(F)F)c(=O)c3c(N)c(C=O)c(c1)c23 [Compound 7] | Inconclusive |
| Cc1c(N2CCN(C)CC2)c2c(=O)c(C(F)(F)F)cc3ccc(C(C)C)cc1c32 [Compound 10] | Inconclusive |

Same assay, conditions: MDA-MB-231 vs Hs 578T 3D spheroid formation, 0.6–40 μM; numbers above bars Fig. 1A,B

| SMILES | KRAS/HRAS mutant cell line DSS3 ratio |
| --- | --- |
| CC(C)c1ccc2cc(C(F)(F)F)c(=O)c3c(N4CCOCC4)c(C=O)c(c1)c23 [Compound 2] | 3.3 |
| CC(C)c1ccc2cc(C(F)(F)F)c(=O)c3c(N4CCCC4)c(C=O)c(c1)c23 [Compound 4] | 2.0 |
| CC(C)c1ccc2cc(C(F)(F)F)c(=O)c3c(N4CCC4)c(C=O)c(c1)c23 [Compound 5] | 0.7 |
| CC(C)c1ccc2cc(C(F)(F)F)c(=O)c3c(NCCO)c(C=O)c(c1)c23 [Compound 6] | 115.5 |
| CC(C)c1ccc2cc(C(F)(F)F)c(=O)c3c(N)c(C=O)c(c1)c23 [Compound 7] | 2.2 |
| Cc1c(N2CCOCC2)c2c(=O)c(C(F)(F)F)cc3ccc(C(C)C)cc1c32 [Compound 9] | 1.3 |
| Cc1c(N2CCN(C)CC2)c2c(=O)c(C(F)(F)F)cc3ccc(C(C)C)cc1c32 [Compound 10] | 0.03 |

System: Hs 578T
Test: as above
Assay type: cell-based
Conditions: Homo sapiens, 72 h; Hs 578T (H-RasG12D) 3D tumorosphere, 3 days treatment; read-out: IC50
Procedure: as §1, §2, §3, §4

| SMILES | IC50 |
| --- | --- |
| CC(C)c1ccc2cc(C(F)(F)F)c(=O)c3c(N4CCOCC4)c(C=O)c(c1)c23 [Compound 2] | 24.9 µM |
| CC(C)c1ccc2cc(C(F)(F)F)c(=O)c3c(N4CCCC4)c(C=O)c(c1)c23 [Compound 4] | > 40 µM |
| CC(C)c1ccc2cc(C(F)(F)F)c(=O)c3c(N4CCC4)c(C=O)c(c1)c23 [Compound 5] | 13.2 µM |
| Cc1c(N2CCOCC2)c2c(=O)c(C(F)(F)F)cc3ccc(C(C)C)cc1c32 [Compound 9] | 17.4 µM |
| Cc1c(N2CCN(C)CC2)c2c(=O)c(C(F)(F)F)cc3ccc(C(C)C)cc1c32 [Compound 10] | 23.1 µM |

Continued, values first:

| IC50 | SMILES |
| --- | --- |
| > 40 µM | CC(C)c1ccc2cc(C(F)(F)F)c(=O)c3c(NCCO)c(C=O)c(c1)c23 [Compound 6] |
| > 40 µM | CC(C)c1ccc2cc(C(F)(F)F)c(=O)c3c(N)c(C=O)c(c1)c23 [Compound 7] |

Same assay, conditions: Homo sapiens; Hs 578T 3D tumorosphere; log scale; read-out: logIC50 ± SD (converted)

| IC50 | SMILES |
| --- | --- |
| 24.5 µM | CC(C)c1ccc2cc(C(F)(F)F)c(=O)c3c(N4CCOCC4)c(C=O)c(c1)c23 [Compound 2] |
| 13.2 µM | CC(C)c1ccc2cc(C(F)(F)F)c(=O)c3c(N4CCC4)c(C=O)c(c1)c23 [Compound 5] |
| 17.4 µM | Cc1c(N2CCOCC2)c2c(=O)c(C(F)(F)F)cc3ccc(C(C)C)cc1c32 [Compound 9] |
| 22.9 µM | Cc1c(N2CCN(C)CC2)c2c(=O)c(C(F)(F)F)cc3ccc(C(C)C)cc1c32 [Compound 10] |

Same assay, conditions: Hs 578T 3D tumorosphere; log scale

| SMILES | logIC50 ± SD |
| --- | --- |
| CC(C)c1ccc2cc(C(F)(F)F)c(=O)c3c(N4CCCC4)c(C=O)c(c1)c23 [Compound 4] | Inconclusive |
| CC(C)c1ccc2cc(C(F)(F)F)c(=O)c3c(NCCO)c(C=O)c(c1)c23 [Compound 6] | Inconclusive |
| CC(C)c1ccc2cc(C(F)(F)F)c(=O)c3c(N)c(C=O)c(c1)c23 [Compound 7] | Inconclusive |

Target: calmodulin (CaM) (Bos taurus, UniProt P62157)
Test: Fluorescence polarization assay, displacement of F-PMCA peptide from CaM
Conditions: not given

| SMILES | Kd | Ki |
| --- | --- | --- |
| CC(C)c1ccc2cc(C(F)(F)F)c(=O)c3c(N4CCOCC4)c(C=O)c(c1)c23 [Compound 2] | 0.23 µM | 13 µM |
| CC(C)c1ccc2cc(C(F)(F)F)c(=O)c3c(N4CCCC4)c(C=O)c(c1)c23 [Compound 4] | 39 µM | – |
| CC(C)c1ccc2cc(C(F)(F)F)c(=O)c3c(N4CCC4)c(C=O)c(c1)c23 [Compound 5] | 29 µM | – |
| Cc1c(N2CCOCC2)c2c(=O)c(C(F)(F)F)cc3ccc(C(C)C)cc1c32 [Compound 9] | 1.44 µM | 229 µM |

Further lines, results first:

| Kd | Ki | SMILES |
| --- | --- | --- |
| 31 µM | – | CC(C)c1ccc2cc(C(F)(F)F)c(=O)c3c(NCCO)c(C=O)c(c1)c23 [Compound 6] |
| 45 µM | – | CC(C)c1ccc2cc(C(F)(F)F)c(=O)c3c(N)c(C=O)c(c1)c23 [Compound 7] |

Same assay, conditions: CaM-binding affinity after 24-h incubation, F-PMCA probe

| Kd ± SD | SMILES |
| --- | --- |
| Inconclusive | Cc1c(N2CCN(C)CC2)c2c(=O)c(C(F)(F)F)cc3ccc(C(C)C)cc1c32 [Compound 10] |

Same assay, conditions: after 24-h incubation; higher affinity than OphA

| affinity for CaM relative to OphA | SMILES |
| --- | --- |
| 15 fold | CC(C)c1ccc2cc(C(F)(F)F)c(=O)c3c(N4CCOCC4)c(C=O)c(c1)c23 [Compound 2] |

Same assay, conditions: read-out: k2/Ki second-order rate constant

| kinact/KI | SMILES |
| --- | --- |
| 25.8 M⁻¹ s⁻¹ | CC(C)c1ccc2cc(C(F)(F)F)c(=O)c3c(N4CCOCC4)c(C=O)c(c1)c23 [Compound 2] |
| 1.67 M⁻¹ s⁻¹ | Cc1c(N2CCOCC2)c2c(=O)c(C(F)(F)F)cc3ccc(C(C)C)cc1c32 [Compound 9] |
